Measurements published in patent US20060069095A1, “Azole derivatives” (priority 2004, published 2006).

Tests used:
A549-Cell-Xenograft = assay: In vivo assay on tumor inhibition (A549 xenograft); parameters: species or system mice; conditions: daily dosage of 80 mg/kg, oral, after 23 days of treatment (44 days of experiment), median tumor volume
Procedure: In vivo Assay on Tumor Inhibition:
To generate primary tumors, Non-Small-Cell Lung Cancer (NSCLC) (e.g. Calu-3 (ATTC HTB-55) or A549 (ATTC CCL-185)) cells (4-5.0×10^6 in a volume of 100 μl) are injected subcutaneously into the left flank of female SCID beige (Severe Combined Immunodeficient/beige mice available from Charles River, Sulzfeld, Germany) or BALB/c nude (BALB/c Nude Spontaneous Mutant Mice (homozygotes) available from Taconic Europe, Ry, Denmark) mice. The cells are thawed and expanded in vitro before use in the experiment. Mice are assigned to the treatment groups 14-21 days after cell injection. […] The subcutaneous primary tumors are measured twice weekly, starting prior to randomisation, in two dimensions (length and width) using an electronic caliper. The volume of the primary tumor is calculated using the formula: V[mm^3]=(length [mm]×width [mm]×width [mm])/2. In addition, the body weight of all animals is recorded at least twice weekly. […]
In one example of the above procedure, treatment was started on or about the 20th-21st day of the experiment (after cell injection) and the treatment was carried out for 23 days (about 44 days of experiment). In this example, primary tumor volume was calculated according to NCI protocol (TW=½ ab^2, where a and b were long and short diameters of tumor mass in mm). […] Tumor weight was determined by analytic scale at termination (day 44/45). […]

A549 cells = assay: MTT assay in A549 cells; format: cell-based, human; conditions: 5 days incubation, 3 μM to 0.15 nM
Procedure: To further show the activity of the compounds according to this invention, their effects on a […] was evaluated using a standard MTT-assay. MTT (3-(4,5-dimethylthiazol-2-yl)-2,5-diphenyl tetrazolium bromide) is widely used for the quantitative determination of cytotoxic effects or in vitro chemosensitivity of tumor cells. The assay is based on the cleavage of the yellow tetrazolium salt (MTT) to purple formazan crystals by metabolic active cells. For details, see Rubinstein, L. V., et al., J. Natl. Cancer Inst. 82 (1990) 1113-1118.
A549 cells (human lung carcinoma cell line ATTC-No. CCL-185) were cultivated in RPMI (Roswell Park Memorial Institute) 1640 medium with GlutaMAX™ I (Invitrogen, Cat-No. 61870-010), 2,5% Fetal Calf Serum (FCS, Sigma Cat-No. F4135 (FBS)); 100 Units/ml penicillin/100 μg/ml streptomycin (=Pen/Strep from Invitrogen Cat. No. 15140). For the assay the cells were seeded in 384 well plates, 900 cells per well, in the same medium. The next day compounds (dissolved 10 mM in dimethylsulfoxide (DMSO)) were added in various concentrations ranging from 3 μM to 0.15 nM (10 concentrations, 1:3 diluted). After 5 days MTT assay was done mainly according to the instructions of the manufacturer (Cell proliferation kit I, MTT, from Roche Molecular Biochemicals). In brief: MTT labeling reagent (3-(4,5-dimethylthiazol-2-yl)-2,5-diphenyltetrazolium bromide (MTT)) was added to a final concentration of 0.5 mg/ml, added and incubated for 4 hrs at 37° C., 5% CO2. During this incubation time purple formazan crystals are formed. After addition of the solubilization solution (20% Sodium Dodecyl Sulfate (SDS) in 0.02 M HCl) the plates were incubated overnight at 37° C., 5% CO2. After careful mixing plates were measured in Victor 2 scanning multiwell spectrophotometer (Wallac) at 550 nm.
A decrease in number of living cells results in a decrease in the total metabolic activity in the sample. The decrease directly correlates to the amount of purple color resulting from the solubilization of the purple formazan crystals.
• A549: 900 cells in 60 μl per well of 384 well plate (Greiner) • Medium: RPMI 1640, 2.5% FCS, glutamine, Pen/Strep. • Incubate 1 day at 37° C.
Induction: • Dilution of compound in DMSO: 3 μl 10 mM+27 μl DMSO, dilute 1:3 • Add 2 μl of compound dilution row to 95 μl of medium • Add 10 μl of compound dilution to 60 μl medium in test plate resulting in 0.3% DMSO per well • Incubate 120 h (5 days) at 37° C., 5% CO2
Analysis: • Add 7 μl MTT (5 mg/7 ml/well), incubate 4 h at 37° C. • Add 30 μl lysis buffer (20% SDS, 0.04 N HCl) per well • Incubate overnight at 37° C.
Measurement: • Victor 2 scanning multiwell spectrophotometer (Wallac) at 550 nm
Determination of IC50 was done using XL-fit (XLfit software (ID Business Solution Ltd., Guilford, Surrey, UK)).

SMILES	Tumor Growth Inhibition (TGI) (A549-Cell-Xenograft)	IC50 (A549 cells)
Cc1cc(OCc2coc(/C=C/c3ccc(OC(F)(F)F)cc3)n2)ccc1CCCCc1cnn(C)n1 [Example 3.2, 2-Methyl-4-[4-(2-methyl-4-{2-[(E)-2-(4-trifluoromethoxy-phenyl)-vinyl]-oxazol-4-ylmethoxy}-phenyl)-butyl]-2H-[1,2,3]triazole]	72%	
Cn1nncc1CCCCc1ccc(OCc2coc(/C=C/c3ccc(OC(F)(F)F)cc3)n2)cc1 [Example 1.2, Methyl-5-[4-(4-{2-[(E)-2-(4-trifluoromethoxy-phenyl)-vinyl]-oxazol-4-ylmethoxy}-phenyl)-butyl]-1H-[1,2,3]triazole]	50%	7 nM
